The values below come from PubChem BioAssay AID1996.

In brackets after ≈: the same amount, converted by molar mass. Where only a bound is given, the exact number is not on record here.

For this series the following is noted: buffer; pH 7.4; 200.0 µM.
Take `CS(=O)(=O)N1CCn2c1nc1ccccc12`: the kinetic solubility is over 35.6 µg/mL.
In turn, `CCC1(c2ccc(-c3ccccc3)cc2)C(=O)NC(=O)NC1=O` returned a solubility (kinetic) of 4.6 µg/mL (≈ 14.9 µM).
`O=C(/C=C/c1ccccc1)OCCN1C(=O)c2ccccc2C1=O` returned a kinetic solubility of under 0.7 µg/mL.
Turning to `COc1cccc(/C=C/C(=O)Nc2ccccc2N2CCOCC2)c1`, the kinetic solubility was 28.1 µg/mL (≈ 83 µM).
`Cc1nsc(Nc2ccccc2)c1C#N` returned a solubility (kinetic) of 7.7 µg/mL (≈ 35.8 µM).
On to `NS(=O)(=O)c1ccc(NC(=O)c2cccc3ccccc23)cc1`, for which the solubility (kinetic) was found to be 3.1 µg/mL (≈ 9.5 µM).
Then `Cc1ccc(C(=O)OCN2C(=O)c3ccccc3C2=O)c(O)c1`, with under 0.7 µg/mL.
The figure for `O=C(NCCc1cccc(Cl)c1)c1ccc2c(c1)OCO2` is 5.8 µg/mL (≈ 19.1 µM); for `CC1(C)CC(=O)C(CC(=O)N2CCC(Cc3ccccc3)CC2)C(=O)C1` it is over 53.3 µg/mL.
The compound `NS(=O)(=O)c1cc2c(cc1Cl)NC=NS2(=O)=O` displayed a kinetic solubility of over 44.4 µg/mL.
Then `COc1cc(OC)nc(/N=C/N(C)C)n1`, with over 31.5 µg/mL.
`CC1CCCCC12NC(=O)N(CC(=O)NCc1ccccc1Cl)C2=O` (stereo not drawn) displayed a solubility (kinetic) of over 54.6 µg/mL.
The figure for `O=C(CSc1ccc(C(F)(F)F)cn1)Nc1ccccc1` is 16.8 µg/mL (≈ 53.8 µM); for `O=C(CCOc1ccccc1)Nc1ccc(Br)cc1` it is under 0.7 µg/mL.
Then `COc1ccc2cc(C(=O)NCCc3ccccc3)[nH]c2c1`, with under 0.3 µg/mL; and `CCOc1ccccc1N1C(=O)CC(Sc2nccc(C)n2)C1=O` (stereo not drawn), with over 51.5 µg/mL; and `N/C(=N\OC(=O)Cc1ccc(-c2ccccc2)cc1)c1ccncc1`, with 0.7 µg/mL (≈ 2.11 µM).
`O=C(CSc1ccccc1F)NC(=O)c1ccc(Cl)cc1` came in with a solubility (kinetic) of 8.5 µg/mL (≈ 26.3 µM).
The figure for `Cc1ccc(NC(=S)Nc2ccc(F)cc2)cc1` is 11.1 µg/mL (≈ 42.6 µM); for `CCC(C)c1ccccc1N=Cc1ccc2c(c1)OCO2` (stereo not drawn) it is 7.1 µg/mL (≈ 25.2 µM); for `COc1ccc(C(CNC(=O)c2cccc(S(=O)(=O)N3CCOCC3)c2)N2CCOCC2)cc1` (stereo not drawn) it is over 73.4 µg/mL.
On to `CC(=O)C(CC(=O)N1CCCC1)C(=O)Nc1ccc(Cl)cc1` (stereo not drawn), for which the solubility (kinetic) was over 48.4 µg/mL.
Regarding `CNC(=O)c1ccccc1Sc1cccc2cccc(C(=O)O)c12`, the solubility (kinetic) was over 50.6 µg/mL.
The figure for `O=C(O)Cc1ccc(NC(=O)Nc2ccc3c(c2)OCO3)cc1` is over 47.1 µg/mL.
Then `Cc1ccc(S(=O)(=O)/N=C(/Nc2ccccc2C)c2ccccc2)cc1`, with 39.8 µg/mL (≈ 109 µM); and `Cc1sc2nc(SCC(=O)Nc3cccc(S(N)(=O)=O)c3)[nH]c(=O)c2c1C`, with 6 µg/mL (≈ 14.1 µM).
`COc1cccc(CN(C)C(=O)c2sccc2-c2ccccc2)c1OC` returned a kinetic solubility of 34.6 µg/mL (≈ 94.2 µM).
The figure for `CN(N)c1nc(N2CCCC2)nc(N2CCCC2)n1` is over 39.5 µg/mL; for `N#CC1(NC(=O)COC(=O)CN2C(=O)c3ccccc3C2=O)CCCCC1` it is over 55.4 µg/mL.
For `N/C(=N\O)c1ccncc1`, the kinetic solubility is over 20.6 µg/mL.
Take `CC(=O)Nc1ccc(/C=C(\C#N)S(=O)(=O)c2ccc(C)cc2)cc1`: the solubility (kinetic) was 5.2 µg/mL (≈ 15.3 µM).
In turn, `COc1ccc(NC(=O)NCc2ccccc2F)cc1OC` returned a kinetic solubility of 10.9 µg/mL (≈ 35.8 µM).
The figure for `COC(=O)c1ccc(C(=O)OC)c(NC(=S)N2CCN(C)CC2)c1` is over 52.7 µg/mL; for `O=C(c1ccc2ccccc2n1)N1CCN(S(=O)(=O)c2ccc(Cl)cc2)CC1` it is 27.4 µg/mL (≈ 65.9 µM); for `COc1ccccc1NC(=O)c1ccccc1NC(=O)c1ccccc1C(=O)O` it is over 58.6 µg/mL.
Regarding `COc1ccc(NC(=O)CN2CCN(Cc3ccccc3)CC2)cc1`, the kinetic solubility is over 50.9 µg/mL.
The compound `CCc1ccc(Nc2ccc3nonc3c2[N+](=O)[O-])cc1` had a kinetic solubility of under 0.2 µg/mL.
Take `COc1ccc(/C=C/C(=O)Nc2ccncc2)cc1OC`: the solubility (kinetic) was 29.8 µg/mL (≈ 105 µM).
As for `CSc1ccccc1NC(=O)COc1ccccc1C`, the solubility (kinetic) was under 0.6 µg/mL.
Compound `Cc1cc(SCC(=O)[O-])nc2ccccc12` gave a solubility (kinetic) of 31 µg/mL.
Compound `CCOc1ccc(OCCC(=O)OCC(=O)NCc2ccccc2)cc1` gave a kinetic solubility of 46.3 µg/mL (≈ 130 µM).
Compound `Cc1cnc(C(=O)OCC(=O)N2CC(C)CC(C)C2)cn1` (stereo not drawn) returned a solubility (kinetic) of 43.3 µg/mL (≈ 149 µM).
The compound `O=C(COC(=O)CCc1ccc(S(=O)(=O)N2CCOCC2)cc1)Nc1ccccc1[N+](=O)[O-]` showed a solubility (kinetic) of 16.8 µg/mL (≈ 35.2 µM).
As for `COc1ccc(S(=O)(=O)NC(C)C(=O)N2CCCC2)cc1C` (stereo not drawn), the kinetic solubility was 41.9 µg/mL (≈ 128 µM).
With `COc1ccc(Nc2nc(C)cc(C)c2C(N)=O)cc1OC`, the kinetic solubility amounted to 43.8 µg/mL (≈ 145 µM).
For `CC(Sc1nc(N)cc(=O)[nH]1)C(=O)Nc1nc2c(s1)CCCC2` (stereo not drawn), the solubility (kinetic) worked out at 8.7 µg/mL (≈ 24.8 µM).
On to `O=C(OCc1cncs1)c1ccccc1`, for which the kinetic solubility was over 32.9 µg/mL.
Consider `O=C(COC(=O)c1cccnc1Cl)NCCC1=CCCCC1`, for which the kinetic solubility was over 48.4 µg/mL.
Compound `CC(C)(C)C(O)CN1CCCC1.Cl` (stereo not drawn) yielded a kinetic solubility of over 31.2 µg/mL.
As to `O=c1[nH]c(/C=C/c2cccc(Br)c2)nc2ccccc12`, the solubility (kinetic) is under 0.4 µg/mL.
The figure for `CCOC(=O)Cn1c(=O)n(Cc2ccc(C)cc2)c(=O)c2cccnc21` is 1.4 µg/mL (≈ 3.96 µM); for `CCc1c(C(=O)N2CCCN(C)CC2)csc1C` it is over 40 µg/mL.
Compound `CN(C)c1ccc(C(=O)OCC(=O)NCCC2=CCCCC2)cc1` registered a kinetic solubility of 4.7 µg/mL (≈ 14.2 µM).
Consider `COc1cccc(N2C(=O)C3CCCN3C2=S)c1` (stereo not drawn), for which the kinetic solubility is over 39.3 µg/mL.
For `Nc1ccc(C(=O)OCC(=O)NC2CC2)cc1[N+](=O)[O-]`, the solubility (kinetic) is over 41.9 µg/mL.
The compound `O=C(NCCCO)C(=O)NCc1ccncc1` gave a kinetic solubility of over 35.6 µg/mL.
Then `CCc1nc2ccc(C(=O)NCc3ccccc3)cc2nc1CC`, with 3.6 µg/mL (≈ 11.3 µM).
With `Cc1ccc(OP(N)(=O)Oc2ccc(C)cc2)cc1`, the solubility (kinetic) came out at 29.6 µg/mL (≈ 107 µM).
Then `CCOC(=O)CNc1cccc(C(F)(F)F)c1`, with 8 µg/mL (≈ 32.4 µM); and `O=C(COC(=O)/C=C/c1ccccc1)NCc1ccc2c(c1)OCO2`, with 4.8 µg/mL (≈ 14.1 µM); and `CCCCN(C(=O)c1cnccn1)c1c(N)n(CCC)c(=O)[nH]c1=O`, with 46.9 µg/mL (≈ 135 µM).
In turn, `O=C(/C=C/c1ccccc1)Oc1cccc(C(=S)N2CCOCC2)c1` registered a solubility (kinetic) of 4.6 µg/mL (≈ 13 µM).
`O=C(CNS(=O)(=O)c1ccc(F)cc1)N1CCOCC1` displayed a kinetic solubility of over 45.3 µg/mL.
`N#C/C(=C(/O)COC(=O)c1ccc(O)cc1)c1nc2ccccc2[nH]1` had a solubility (kinetic) of 9 µg/mL (≈ 26.8 µM).
The figure for `CCCCc1nc2cc(C(=O)NCc3cn(C)nc3C)ccc2o1` is over 49 µg/mL; for `CC1(C)CC(CCN)(Cc2ccccc2Cl)CCO1` (stereo not drawn) it is 37.7 µg/mL (≈ 134 µM); for `NS(=O)(=O)c1ccc(NC(=S)NC(=O)C2CCCC2)cc1` it is over 49.1 µg/mL.
As for `CNCc1c(OCc2ccc(F)cc2)ccc2ccccc12.Cl`, the solubility (kinetic) is over 49.8 µg/mL.
In turn, `Cc1cccc(C)c1OCCNC(=O)OCc1ccccc1` returned a kinetic solubility of 15.8 µg/mL (≈ 52.8 µM).
`CN1CCc2c(sc(/N=C/c3c[nH]c4ccccc34)c2C(N)=O)C1` registered a kinetic solubility of 10.2 µg/mL (≈ 30.1 µM).
For the compound `COc1cccc(NC(=S)N(CCN(C)C)C(C)c2cccnc2)c1` (stereo not drawn), the kinetic solubility is over 53.8 µg/mL.
Turning to `C/C(N)=C(/C#N)C(=O)COC(=O)C1CCN(S(=O)(=O)c2cccs2)CC1`, the kinetic solubility came out at 10.9 µg/mL (≈ 27.4 µM).
In turn, `O=C(COC(=O)c1ccc(S(=O)(=O)NCc2ccco2)cc1)NCc1ccccc1` came in with a kinetic solubility of 7.4 µg/mL (≈ 17.3 µM).
As for `CCCCCn1c(N2CCCC2)nc2c1c(=O)n(C)c(=O)n2C`, the kinetic solubility was over 47.9 µg/mL.
Compound `O=C(NCCc1ccc(F)cc1)c1cc2ccccc2oc1=O` registered a solubility (kinetic) of under 0.7 µg/mL.
As for `CCCN1C2CCCC1CC(NC(=S)Nc1cccc(C)c1)C2` (stereo not drawn), the kinetic solubility is over 49.7 µg/mL.
Then `CN(c1ccccc1)c1nc(N)c([N+](=O)[O-])c(N2CCOCC2)n1`, with 47.6 µg/mL (≈ 144 µM); and `Cn1c(CNc2ccc(O)cc2)nc2ccccc21`, with 35 µg/mL (≈ 138 µM); and `CC(=O)c1ccc(S(=O)(=O)NC2CC2)cc1`, with 26.1 µg/mL (≈ 109 µM).
`CN(CC(=O)Nc1ccccc1F)Cc1cccs1`: the kinetic solubility was determined as 30.1 µg/mL (≈ 108 µM).
`CCOC(=O)c1sc(=NC(=O)c2ccccc2)n(C)c1C` came in with a kinetic solubility of 0.4 µg/mL (≈ 1.31 µM).
`CC(=O)c1sc(NC(=O)COc2ccc(Cl)cc2Cl)nc1C` returned a solubility (kinetic) of under 0.4 µg/mL.
The compound `O=C(O)CCCNC(=O)Cc1ccccc1` showed a kinetic solubility of over 33.2 µg/mL.
Regarding `O=C(CNC(=O)c1ccccc1)OCN1C(=O)c2ccccc2C1=O`, the kinetic solubility was over 50.7 µg/mL.
The figure for `O=C(NNC1CC(=O)N(c2ccccc2)C1=O)c1cccnc1` (stereo not drawn) is over 46.5 µg/mL.
The compound `CC(OC(=O)c1ccncc1)C(=O)NC1CCCC1` (stereo not drawn) gave a solubility (kinetic) of over 39.3 µg/mL.
Compound `CN1CCN(CC#CCC2(O)c3ccccc3-c3ccccc32)CC1` displayed a kinetic solubility of 42.1 µg/mL (≈ 127 µM).
Take `Cc1ccc(C(=O)Nc2ccccc2Cl)cc1`: the solubility (kinetic) is 21 µg/mL (≈ 85.5 µM).
`Cc1cc(OCC(=O)N(C(C)C)C(C)C)ccc1Cl` returned a solubility (kinetic) of 28.8 µg/mL (≈ 101 µM).
Compound `CC(=O)CC1(OC(C)=O)C(=O)N(C)c2ccccc21` (stereo not drawn) had a kinetic solubility of over 39.2 µg/mL.
`CCCC(=O)Nc1ccccc1NC(=O)c1ccc(OC(C)=O)cc1` came in with a kinetic solubility of 47.5 µg/mL (≈ 140 µM).
Compound `O=C(COc1ccc([N+](=O)[O-])cc1)N1CCc2ccccc2C1` gave a kinetic solubility of 37.5 µg/mL (≈ 120 µM).
With `Cn1c(Oc2ccc(F)cc2F)c(C=O)c2ccccc21`, the solubility (kinetic) worked out at 16.6 µg/mL (≈ 57.8 µM).
With `O=[N+]([O-])c1ccc(S(=O)(=O)Nc2ccccn2)cc1`, the kinetic solubility was over 41.9 µg/mL.
On to `O=C(Nc1ccc(C(=O)O)cc1)Nc1cccc2ccccc12`, for which the solubility (kinetic) is over 45.9 µg/mL.
The compound `CCc1nc2ccccc2c(C(=O)OCC(=O)NC2CCCC2)c1C` registered a kinetic solubility of 48.5 µg/mL (≈ 142 µM).
The figure for `CCC1=C(C)CN(C(=O)NCCc2ccc(S(=O)(=O)NC(=O)NC3CCC(C)CC3)cc2)C1=O` (stereo not drawn) is over 73.6 µg/mL; for `CN(CCOC(=O)/C=C/c1ccco1)Cc1ccccc1` it is over 42.8 µg/mL.
Consider `CCOc1ccc(-n2c(=O)c3ccccc3c3ccccc3c2=O)cc1`, for which the solubility (kinetic) stood at 18 µg/mL (≈ 52.4 µM).
Turning to `O=c1cc(CN2CCOCC2)c2cc(Cl)c(O)cc2o1`, the kinetic solubility is over 44.4 µg/mL.
In the case of `CC(=O)c1cccc(NC(=O)N2CCCCCC2)c1`, the kinetic solubility is over 39.1 µg/mL.
As to `COC(=O)c1sccc1NC(=O)CSc1ccccc1N`, the solubility (kinetic) was 20.8 µg/mL (≈ 64.5 µM).
Take `CCn1c(SCC(=O)NC(C)(C)C)nnc1-c1ccncc1`: the solubility (kinetic) is over 47.9 µg/mL.
